{"source": "ChEMBL document CHEMBL1150205", "about": "“Justiciresinol, a new furanoid lignan from Justicia glauca” (1991)", "type_in_all_cases": "functional", "conditions_in_all_cases": "read-out: ED50 (the source's name)", "key": {"[1]": {"test_system": "A549", "assay": "Cytotoxicity against human A549 cells"}, "[2]": {"test_system": "MCF7", "assay": "Cytotoxicity against human MCF7 cells"}, "[3]": {"test_system": "HT-29", "assay": "Cytotoxicity against human HT-29 cells"}}}
{"smiles": "COc1cc([C@H]2OC[C@H](Cc3cc(OC)c(O)c(OC)c3)[C@@H]2CO)ccc1O", "note": "[JUSTICIRESINOL]", "values": [{"measurement": "EC50", "setting": "[1]", "value": 31.3, "unit": "µg/mL"}, {"measurement": "EC50", "setting": "[2]", "value": 22.3, "unit": "µg/mL"}, {"measurement": "EC50", "setting": "[3]", "value": 18.3, "unit": "µg/mL"}]}
